Reference: article PMC11726359, “Discovery of Rezatapopt (PC14586), a First-in-Class, Small-Molecule Reactivator of p53 Y220C Mutant in Development” (ACS Medicinal Chemistry Letters, 2024)
Like-named read-outs stand apart in the source and are kept apart here. Blank lines part the entries; values can stand above or below the molecule they belong to.

What was measured:
[1] = molecular target: T1, recombinant His-tag Y220C p53 DNA binding domain (Homo sapiens, UniProt P04637, Y220C); test: TR-FRET DNA binding assay (SC150); format: biochemical
T1 construct: Y220C p53 DBD protein (amino acids #94-312); made in house
Excerpt: At the outset of our hit generation campaign, several small molecules targeting the p53 Y220C mutant protein were identified. Two notable examples, supported by crystallographic data, were the compounds from the carbazole series[6] (PhiKan83) and the iodophenol series[7] (PK1596) (Figure 1). To assess the in vitro potency of the p53 Y220C reactivators, a time-resolved fluorescence resonance energy transfer (FRET) assay was developed. In this assay, recombinant His-tag Y220C p53 DNA binding domain binds to biotin-labeled consensus DNA, and the FRET signal is measured between the allophycocyanin-conjugated anti-His-tag antibody and europium-conjugated streptavidin. The […] concentration required to increase DNA binding by 1.5-fold (SC150) could then be determined. The carbazole compound (PhiKan83) enhanced DNA binding with an SC150 of 37.2 μM. […]
Time-Resolved Fluorescence Resonance Energy Transfer (TR-FRET) Assay
DNA binding activity was measured by the TR-FRET assay. In this assay, the recombinant His6-tag Y220C p53 DNA binding domain (DBD) protein binds to biotin labeled consensus DNA. The binding of recombinant His6-tag Y220C p53 DBD protein and biotin-labeled consensus DNA is detected by the fluorescence resonance energy transfer (FRET) between allophycocyanin (APC) conjugated anti-His6 tag antibody and Europium-(Eu) conjugated Streptavidin. Test compounds, at 2 mM stock in DMSO, were diluted t hr e e-f ol d in serial dilutions in DMSO and 1.2 µL per well were added into 384-well polypropylene black plates (NUNC). Subsequently, 30 µL per well of 181 nM recombinant His6-tag Y220C p53 DBD protein (amino acids #94-312) and 9.1 nM of APC conjugated anti-His6 tag antibody (Columbia Biosciences) in ice-cold Assay Buffer 1 (50 mM Tris-HCl, pH 7.4, 75 mM KCl, 0.75 mM DTT and 0.2 mg/mL bovine serum albumin [BSA]) was added. As a background control, 30 µL of Assay Buffer 1 containing 9.1 nM of APC anti-His6 antibody (no Y220C protein) was also added into a second set of serial diluted compound plates. The samples were centrifuged at 1,200 rpm (Eppendorf 5810R plate centrifuge) for 1 minute and incubated at room temperature (20 °C) for 15 min. The samples were then incubated at 27 °C in a water bath for 48 min. Afterwards, 5 µL per well of 145 nM biotin labeled oligonucleotide from a consensus DNA p53 response element (a DNA duplex with 5’ to 3’sequence of […]
and biotin attached to the 3’ end of the complementary DNA) and 8.8 nM Eu-conjugated streptavidin (Columbia Biosciences) in Assay Buffer 2 (50 mM Tris-HCl, pH 7.4, 75 mM KCl and 0.2 mg/mL BSA) were added. The samples were centrifuged at 1,200 rpm for 1 min and incubated at room temperature (20 °C) for 20 min. Assay signals were monitored by reading excitation at 340 nm, and emission fluorescence at 615 and 665 nm, on an Envision reader (Perkin El mer). Normalized TR -FRET assay signal (Rn) was calculated by the formula:
Rn = [(A − B a − C × (D − Bd))/(D − Bd)] × (Dc − B d),
C = (Ac − B a)/(Dc − B d), […]

[2] = female, CD-1, mouse, in vivo, po, 50 mg/kg
Method: (§1) Pharmacokinetic parameters were evaluated in female CD-1 mice. Animals received an oral gavage dose of 50 mg/kg of the test article. The test article was formulated in a solution containing 2% hydroxypropyl
(§2) cellulose and 0.5% Tween 80 in water. Blood samples were collected at 0.5, 1, 2, 4, 7, and 24 h post dose.
(§3) Blood samples were processed into plasma, and the concentrations of the test article were determined by
(§4) LC-MS/MS. P harmacokinetic parameters were calculated using the Phoenix WinNonlin 6.3 program,
(§5) employing a non- compartmental model 200.

[3] = test system: NUGC-3, gastric cancer cell line with a TP53 Y220C mutation; test: MTT cell proliferation assay; format: cell-based, human; conditions: Homo sapiens, NUGC-3, 120 h, NUGC-3 cells, five days incubation
Method: We also evaluated the effects of these compounds on the growth and viability of four cancer cell lines in vitro. Two of the cell lines (NUGC-3, gastric cancer cell line with a TP53 Y220C mutation and T3M-4, pancreatic carcinoma cell line) have the TP53 Y220C mutation leading to the p53 Y220C mutant protein; SJSA-1 is a p53 WT cell line, and NUGC-3-KO is an isogenic p53 knockout cell line.[11] After incubating the cells with the compounds for five days, cell viability was measured using the 3-(4,5-dimethylthiazol-2-yl)-2,5-diphenyltetrazolium bromide (MTT) assay.
C = (Ac − B a)/(Dc − B d),
Prism (GraphPad) or XLfit software (IDBS).
Cells were seeded at an appropriate
Compounds were tested at eight concentrations with 2-fold serial dilutions. […]
with a reference wavelength of 650 nm. […]
untreated cells (control). […]

Caco-2 permeability = format: in vitro ADME; conditions: human
Excerpt: Significant efforts were dedicated to the optimization of compound 13, and a successful approach involved fluorine substitution of the piperidine ring. Fluorine substitution often plays a crucial role in medicinal chemistry, exerting a substantial impact on the characteristics of drug molecules.[12],[13] Incorporation of fluorine atoms can yield diverse effects and improvements in a drug’s pharmacological properties. In the case of the piperidine ring in compound 13, several key effects of fluorine substitution were predicted, including enhanced hydrogen bonding with Threonine-150, increased conformational rigidity of the piperidine ring, and reduced basicity. […] We postulated that the fluorine atom on the piperidine ring of compound 22, which preferentially stays in the axial position, can form a better hydrogen bond with the N-H group of Threonine-150. The enhanced cellular potency of compound 22 can be attributed to the enhanced permeability. […] Recently, insights into the conformational behavior of cis-fluorinated piperidines were reported.[14]

[4] = Pharmacokinetic study in mice; conditions: 50 mg/kg
Method: as §1, §2, §3, §4, §5

NUGC-3 tumor xenografts = test: NUGC-3 tumor xenograft efficacy in nude mice; format: in vivo, mouse; conditions: for inhibition of tumor growth: oral, daily
Method: Compound 26 (rezatapopt; PC14586), which had the most favorable plasma exposure, was evaluated for its ability to inhibit the growth of NUGC-3 tumor xenografts in nude mice.
Study of C ompound 26 in NUGC-3 Xenograft
Female Balb/c nude mice, aged 4 to 6 weeks, were obtained from Envigo (Madison, WI). All mice were housed at the PMV Pharmaceuticals Vivarium. Mouse care and experimental procedures adhered to institutional guidelines for ethical use, with all research protocols approved by the Institutional Animal Care and Use Committees of PMV Pharmaceuticals. The mice were maintained at ambient temperatures of 68–72 °F, with 30–70% humidity, and a 12 -hour dark/light cycle.
NUGC-3 cells were resuspended at a concentration of 1×10^7 viable cells/mL in a 50:50 mixture of phosphate-buffered saline and Matrigel Matrix (Corning). Subsequently, 100 µL of the suspension was injected subcutaneously into the dorsal flankof the mice . Mice were selected and randomized into treatment groups based on tumor size.

Toxicological studies = conditions: result in words
[5] = test system: TP53 Y220C mutant solid tumors; set-up: method as in doi:10.1158/1535-7163.TARG-23-LB_A25; conditions: cited from earlier work
[6] = Half-life in human liver microsomes; format: in vitro ADME; conditions: read-out: half-life (T1/2)
Excerpt: However, there was a significant improvement in potency with fluorine substitution at the hydrophobic anchor (R3 = CF3, compound 7). […] The trifluoromethyl group remained the best anchor throughout the hit expansion and drug discovery campaign. Assessment of the 4-substituted indole compounds (R1 = H, compounds 8–14) led to a breakthrough regarding the potency of the compounds. Our molecular modeling predicted that the side chain of Threonine-150 within the p53 Y220C protein would form a hydrogen bond with the ligand. This interaction helped to orient the ligand in the binding pocket of the p53 Y220C mutant protein and enhance other interactions such as hydrophobic and van der Waals interactions. […] With the nitrogen atom in place, various polar groups were assessed, and it was determined that basic nitrogen, such as that in the piperidine ring, was preferred for maintaining the potency of the compound (R2 = S5). Many substituents can be tolerated for the aromatic ring occupying the subsite.

[7] = Table 3, concentration required to increase DNA binding by 1.5-fold
[8] = Table 1, concentration required to increase DNA binding by 1.5-fold

- SC150 [1, 7]: 7 nM
- Mouse PK Exposure AUC0-last [2]: 15328 ng·h/mL
- Mouse PK Exposure Cmax [2]: 2747 ng/mL
- IC50 ([3]; Table 3): 457 nM
Compound: COc1cc(C(=O)N2CC3(COC3)C2)ccc1NCC#Cc1cc2c(N[C@@H]3CCN(C)C[C@@H]3F)cccc2n1CC(F)(F)F [Compound 28, [4-[3-[4-[[(3S,4R)-3-fluoro-1-methyl-4-piperidyl]amino]-1-(2,2,2-trifluoroethyl)indol-2-yl]prop-2-ynyl-amino]-3-methoxy-phenyl]-(2-oxa-6-azaspiro[3.3]heptan-6-yl)methanone]

- Papp (Caco-2 permeability): 11.8 ×10⁻⁶ cm/s
- SC150 [1, 8]: 23 nM
- SC150 ([1]; Table 2, concentration required to increase DNA binding by 1.5-fold): 23 nM
- Mouse PK Exposure AUC0-last ([4]; Table 2, PO): 3545 ng·h/mL
- Mouse PK Exposure Cmax ([4]; Table 2, PO): 903 ng/mL
- IC50 ([3]; Table 2): 2100 nM
Compound: COc1cc(S(C)(=O)=O)ccc1NCC#Cc1cc2c(NC3CCN(C)CC3)cccc2n1CC(F)(F)F [Compound 13]

- SC150 [1, 7]: 9 nM
- Mouse PK Exposure AUC0-last ([4]; Table 3, PO): 163342 ng·h/mL
- Mouse PK Exposure Cmax ([4]; Table 3, PO): 16600 ng/mL
- IC50 ([3]; Table 3): 504 nM
Compound: CNC(=O)c1ccc(NCC#Cc2cc3c(N[C@@H]4CCN(C)C[C@@H]4F)cccc3n2CC(F)(F)F)c(OC)c1 [Compound 26]
- tumor regression (NUGC-3 tumor xenografts; 100 mg/kg, nude mice): 80%
- effect on established human tumor xenografts harboring TP53 Y220C (NUGC-3 tumor xenografts; mouse models, well-tolerated doses, result in words): tumor inhibition and regression
- inhibition of tumor growth (NUGC-3 tumor xenografts; 25 mg/kg, nude mice): 33%
- inhibition of tumor growth (NUGC-3 tumor xenografts; 50 mg/kg, nude mice): 71%
- safety profile in toxicological studies (Toxicological studies): favorable safety profile
- clinical efficacy in Phase 1 clinical trials ([5]; heavily pretreated patients, solid tumors harboring TP53 Y220C, listed as rezatapopt): single-agent clinical efficacy was achieved
- safety profile in Phase 1 clinical trials ([5]; within the efficacious dose range): favorable safety profile

- SC150 ([1]; Figure 1, enhancement of DNA binding): 13600 nM
- SC150 [1, 8]: 13600 nM
- half-life [6]: 4 min
Compound: CCn1c(C#CCNc2ccccc2)cc2cc(CNC)ccc21 [Compound 1, N-[3-[1-ethyl-5-(methylaminomethyl)indol-2-yl]prop-2-ynyl]aniline]
